From patent US20230381176A1, “A PHARMACEUTICAL COMPOSITION AND USE THEREOF FOR TREATMENT OF CANCER” (Ascentage Pharma (Suzhou) Co., Ltd., priority 2020, published 2023)

Assays:
ovarian PA-1 xenograft = test: s.c. ovarian PA-1 xenograft tumor model, Compound 5 and carboplatin; type: in vivo, mouse; settings: Compound 5 100 mg/kg orally once per day 21 days, carboplatin 50 mg/kg i.p. once on Day 1
Method: (§1) A subcutaneous xenograft tumor model of human tumor immunodeficient mice was established by cell inoculation: tumor cells in logarithmic growth phase were collected, counted, resuspended in 1×PBS, and the cell suspension concentration was adjusted to 2.5-5 ×10^7/mL. The tumor cells were inoculated subcutaneously in the right side of immunodeficient mice with a 1 mL syringe ([…]), 5-10×10^6/0.2 mL/mouse. All animal experiments were strictly in accordance with the specifications for the use and management of experimental animals in GenePharma Co., Ltd. and Suzhou Ascentage Pharma Co., Ltd. The calculation of relevant parameters refers to the Chinese NMPA “Guidelines for Non-Clinical Research Techniques of Cytotoxic Anti-tumor Drugs”.
(§2) Animal body weight and tumor size were measured twice weekly during the experiment. The state of the animal and the presence or absence of death were observed every day. The growth of tumor and the effects of treatment on normal behavior of animals were monitored routinely, specifically involving experimental animal activity, feeding and drinking, weight gain or loss, eyes, clothing hair and other abnormalities. The deaths and clinical symptoms observed during the experiment were recorded in the raw data. All operations for administration and measurement of mouse body weight and tumor volume were performed in a clean bench. According to the requirements of the experimental protocol, after the end of the last administration, plasma and tumor tissues were collected, weighed and photographed. The plasma and tumor samples were frozen at −80° C. for ready-to-use.
(§3) Tumor volume (TV) is calculated as: TV=a×b^2/2, wherein a and b represent the length and width of the tumor to be measured, respectively.
(§4) The relative tumor volume (RTV) is calculated as: RTV=Vt/V1, wherein V1 is the tumor volume at the start of grouping and administration, and Vt is the tumor volume measured on the t day after administration.
(§5) The evaluation index of anti-tumor activity is the relative tumor proliferation rate T/C (%), and the calculation formula thereof is: relative tumor proliferation rate T/C (%)=(TRTV/CRTV)×100%, TRTV is the RTV of treatment group, CRTV is the RTV of solvent control group.
(§6) Change of body weight (%)=(measured body weight−body weight at the start of grouping)/body weight at the start of grouping×100%.
(§7) A dose of drug is considered to be severely toxic if the body weight of mouse is reduced by more than 20% or the number of drug-related deaths exceeds 20%.
(§8) According to the description by Clarke R., Issues in experimental design and endpoint analysis in the study of experimental cytotoxic agents in vivo in breast cancer and other models [J]. Breast Cancer Research & Treatment, 1997, 46(2-3): 255-278, synergy analysis was evaluated using the following formula: synergy factor=((A/C)×(B/C))/(AB/C); A=RTV value of drug A alone group; B=RTV value of drug B alone group; C=RTV value of the solvent control group, and AB=RTV value of the A and B combination group.
(§9) Use of mRECIST (Gao et al., 2015) measured tumor responses included stable disease (SD), partial tumor regression (PR), and complete regression (CR), determined by comparing tumor volume change at day t to its baseline: tumor volume change (%)=(Vt−V1)/V1. The BestResponse was the minimum value of tumor volume change (%) for t≥10. For each time t, the average of tumor volume changes from t=1 to t was also calculated. […] Body weight of animals were monitored simultaneously. […]

[1] = system: PTK2 high NSCLC PDX LU-01-0604; test: s.c. PTK2 high NSCLC PDX model LU-01-0604, Compound 5 and carboplatin; type: in vivo, mouse
Method: as §1, §2, §3, §4, §5, §6, §7, §8
as §9, with “calculated. BestAvgResponse was defined as the minimum value of this average for t≥10. The criteria for response (mRECIST) were adapted from RECIST criteria (Gao et al., 2015; Therasse et al., 2000) and defined as follows: mCR, BestResponse<−95% and BestAvg Response<−40%; mPR, BestResponse<−50% and BestAvgResponse<−20%; mSD, BestResponse<35% and BestAvgResponse<30%; mPD, not otherwise categorized. SD, PR, and CR were considered responders and used to calculate response rate (%).” for “calculated.”

[2] = system: PTK2 high ovarian PDX OV2423; test: PTK2 high ovarian PDX model OV2423, Compound 5 and carboplatin and/or paclitaxel; type: in vivo, mouse; settings: for RTV on Day 28 after administration (mean ± standard error) / T/C on Day 28 after administration (%): Compound 5 50 mg/kg orally once per day, carboplatin 30 mg/kg i.p. once a week, paclitaxel 10 mg/kg i.v. once a week, 28 days; for mRECIST: animals per class; for antitumor activity (conclusion in words): mouse, in vivo
Method: as §1, §2, §3, §4, §6, §7, §8
(§10) Use of mRECIST (Gao et al., 2015) measured tumor responses included stable disease (SD), partial tumor regression (PR), and complete regression (CR), determined by comparing tumor volume change at day t to its baseline: tumor volume change (%)=(Vt−V1)/V1. The BestResponse was the minimum value of tumor volume change (%) for t≥10. For each time t, the average of tumor volume changes from t=1 to t was also calculated. BestAvgResponse was defined as the minimum value of this average for t≥10. The criteria for response (mRECIST) were adapted from RECIST criteria (Gao et al., 2015; Therasse et al., 2000) and defined as follows: mCR, BestResponse<−95% and BestAvg Response<−40%; mPR, BestResponse<−50% and BestAvgResponse<−20%; mSD, BestResponse<35% and BestAvgResponse<30%; mPD, not otherwise categorized. SD, PR, and CR were considered responders and used to calculate response rate (%). […] Body weight of animals were monitored simultaneously. The change in body weight was calculated based on the animal weight of the first day of dosing (day 1). Tumor volume and changes in body weight (%) were represented as the mean±standard error of the mean (SEM).

ovarian PDX OV1658 = test: Ovarian PDX model OV1658, Compound 5 and carboplatin and/or paclitaxel; type: in vivo, mouse; settings: for RTV on Day 19 after administration (mean ± standard error) / T/C on Day 19 after administration (%): Compound 5 50 mg/kg orally once per day, carboplatin 30 mg/kg i.p. once a week, paclitaxel 10 mg/kg i.v. once a week, 19 days; for mRECIST on Day 19 after administration: Day 19, animals per class; for mRECIST: best response, animals per class; for antitumor activity (conclusion in words): mouse, in vivo
Method: as §1, §2, §3, §4, §6, §7, §8, §10

[3] = system: PTK2 high ovarian PDX OV1385; test: PTK2 high ovarian PDX model OV1385, Compound 5 and carboplatin and/or paclitaxel; type: in vivo, mouse; settings: for RTV on Day 35 after administration (mean ± standard error) / T/C on Day 35 after administration (%): Compound 5 50 mg/kg orally once per day, carboplatin 30 mg/kg i.p. once a week, paclitaxel 10 mg/kg i.v. once a week, 35 days; for mRECIST on Day 35 after administration: Day 35, animals per class; for antitumor activity (conclusion in words): mouse, in vivo
Method: as §1, §2, §3, §4, §6, §7, §8, §10

NCI-H2228 tumor cells = test: Cell viability WST (CCK-8) assay, combination of Compound 5 and Compound 34; type: cell-based; settings: Homo sapiens, 72 hours, single agent, read-out: Compound B IC50
Method: Cell plating: Anti-proliferative effects were detected by a CCK-8 (Cell Counting Kit-8, Shanghai life iLab, China) assay based on water soluble tetrazolium salt (WST). The cells were seeded in 96-well plates, and only 95 μL of complete medium was added to each negative control group. 95 μL of complete medium cell suspension was added to each well to be tested, and the cell density was (5-10)×10^4/hole. Dosing (protection from light): […] After 72 hours of action by using 6 different concentrations of Compound 34 with 3 fixed doses of Compound 5, the combination effect of Compound 5 an Compound 34 was tested. Reading: […] The plates were continuously incubated at 37 ° C. for 2-4 hours in a CO2 incubator. The OD values were measured using a microplate reader (SpectraMax Plus 384, Molecular Devices, LLC., US) under A450 nm. […] (O.D. of test well−O.D. of blank control well)/(O.D. of cell control well−O.D. of blank control well)×100%. IC50 values were calculated using Graphpad Prism 6.0 software for nonlinear regression data analysis method.

[4] = system: OVCAR3 s.c. ovarian xenograft; test: OVCAR3 s.c. ovarian xenograft model, overcoming resistance to paclitaxel / paclitaxel and carboplatin; type: in vivo, mouse
Method: as §1
as §2, with “All operations for administration and measurement of mouse body weight and tumor volume were performed in a clean bench. According to the requirements of the experimental protocol, after the end of the last administration, plasma and tumor tissues were collected, weighed and photographed.” left out
as §3, §4
Change of body weight (%)=(measured body weight−body weight at the start of grouping)/body weight at the start of grouping×100%. […]
Use of mRECIST (Gao et al., 2015) measured tumor responses included stable disease (SD), partial tumor regression (PR), and complete regression (CR), determined by comparing tumor volume change at day t to its baseline: tumor volume change (%)=(Vt−V1)/V1. […]

[5] = system: OVCAR3 s.c. ovarian xenograft; type: in vivo
Method: as §1, §2, §3, §4, §6, §7, §8, §10

[6] = system: PTK2 high ovarian PDX OV2018; test: PTK2 high ovarian PDX model OV2018, Compound 5 and paclitaxel; type: in vivo, mouse
Method: as §1, §2, §3, §4, §6, §7, §8, §10

A549 NSCLC xenograft = test: s.c. A549 NSCLC lung cancer model, Compound 5 and panobinostat; type: in vivo, mouse; settings: Compound 5 100 mg/kg orally once per day, panobinostat 3 mg/kg i.p. 5 days then 2 days break, 14 days
[7] = Compound 5 50 mg/kg orally once per day, carboplatin 30 mg/kg i.p. once per week, 29 days
[8] = Compound 5 100 mg/kg orally once per day, paclitaxel 10 mg/kg i.v. once a week, carboplatin 30 mg/kg i.v. once a week
[9] = Compound 5 50 mg/kg orally once per day, paclitaxel 10 mg/kg i.v. once a week, 35 days
[10] = best response, animals per class

SMILES	RTV on Day 28 after administration (mean ± standard error) [2]	T/C on Day 28 after administration (%) [2] [%]	mRECIST [2]	antitumor activity (conclusion in words) [2]	RTV on Day 19 after administration (mean ± standard error) (ovarian PDX OV1658)	T/C on Day 19 after administration (%) (ovarian PDX OV1658)	mRECIST on Day 19 after administration (ovarian PDX OV1658)	mRECIST (ovarian PDX OV1658)	antitumor activity (conclusion in words) (ovarian PDX OV1658)	RTV on Day 35 after administration (mean ± standard error) [3]	T/C on Day 35 after administration (%) [3] [%]	mRECIST on Day 35 after administration [3]	antitumor activity (conclusion in words) [3]	also measured
N.N.O=C([O-])C1(C(=O)[O-])CCC1.[Pt+2] [Carboplatin, carboplatin]	8.97 ± 1.24	47.76	2/2 PD	moderate antitumor activity	9.34 ± 2.01	68.37	2/2 PD	2/2 PD	minor antitumor activity	2.08 ± 0.49	51.49	2/2 PD	moderate antitumor activity	RTV on Day 22 after administration (mean ± standard error) (ovarian PA-1 xenograft): 15.1 ± 2.3; T/C on Day 22 after administration (%) (ovarian PA-1 xenograft): 94.97%; RTV on Day 29 after administration (mean ± standard error) [1, 7]: 11.15 ± 6.55; T/C on Day 29 after administration (%) [1, 7]: 127.72%; antitumor activity (conclusion in words) ([1]; mouse, in vivo): no antitumor activity
Cc1ccc(C(=O)Nc2ccc(CN3CCN(C)CC3)c(C(F)(F)F)c2)cc1C#Cc1cnc2[nH]ncc2c1 [Compound 34]	–	–	–	–	–	–	–	–	–	–	–	–	–	IC50 (NCI-H2228 tumor cells): 1680 nM
CC(=O)O[C@H]1C(=O)[C@@]2(C)[C@H]([C@H](OC(=O)c3ccccc3)[C@]3(O)C[C@H](OC(=O)[C@H](O)[C@@H](NC(=O)c4ccccc4)c4ccccc4)C(C)=C1C3(C)C)[C@]1(OC(C)=O)CO[C@@H]1C[C@@H]2O [Paclitaxel, paclitaxel]	9.54 ± 1.73	50.80	2/2 PD	moderate antitumor activity	11.79	86.31	2/2 PD	2/2 PD	minor antitumor activity	1.80 ± 0.75	44.55	2/2 PD	moderate antitumor activity	DCR (%) ([4]; mouse, in vivo): 20%; ORR (%) ([4]; mouse, in vivo): 0%; RTV on Day 56 after administration (mean ± standard error) ([4]; paclitaxel 10 mg/kg i.v. once a week, carboplatin 30 mg/kg i.v. once a week, Compound 5 100 mg/kg orally once per day from Day 15): 5.19 ± 0.62; RTV on Day 35 after administration (mean ± standard error) [5, 8]: 8.02 ± 1.30; T/C on Day 35 after administration (%) [5, 8]: 52.14%; mRECIST ([5]; animals per class): 5/5 PD; antitumor activity (conclusion in words) ([5]; mouse, in vivo): moderate antitumor activity; Overall regression rate (ORR), % ([5]; proportion of animals with CR or PR): 0%; Disease control rate (DCR), % ([5]; proportion of animals with CR, PR or SD): 0%; RTV on Day 35 after administration (mean ± standard error) [6, 9]: 2.87 ± 0.24; T/C on Day 35 after administration (%) [6, 9]: 118.60%; mRECIST on Day 35 after administration ([6]; Day 35, animals per class): 2/2 PD; mRECIST [6, 10]: 2/2 PD; antitumor activity (conclusion in words) ([6]; mouse, in vivo): no antitumor activity; mRECIST [3, 10]: 2/2 PD
Cc1[nH]c2ccccc2c1CCNCc1ccc(/C=C/C(=O)NO)cc1 [panobinostat, reference compound]	–	–	–	–	–	–	–	–	–	–	–	–	–	RTV on Day 14 after administration (mean ± standard error) (A549 NSCLC xenograft): 2.06 ± 0.29; T/C on Day 14 after administration (%) (A549 NSCLC xenograft): 57.54%
